The assay concerns KRAS G12V dependent lung adenocarcinoma cell line, NCI-H441. Kind of assay: Cellular pERK (Thr202/Tyr204) FRET/HTRF assay. Format: cell-based. The settings on record: NCI-H441 (KRAS G12V) cells. The procedure, abridged: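 Adherent NCI-H441 cells, plated the previous night, receive test compound for one hour at 37 °C. They are then lysed with a buffer containing phosphatase inhibitors and incubated at room temperature with Eu3+-cryptate and d2 labelled anti-pERK antibodies. HTRF signal gives IC50 by curve fitting.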
(TR-FRET usually uses a lanthanide donor and a delayed reading to cut background.)

Where [1] appears, read: Homo sapiens, NCI-H441, cellular pERK HTRF.

pIC50: −log10 of the molar value.

Take `[2H]C([2H])(Oc1nc(N2CCCC[C@H]3[C@H](F)[C@H]32)c2cnc(-c3cc(N)cc4ccc(F)c(C#C)c34)c(C)c2n1)[C@@]12CCCN1C[C@H](F)C2` [Example 460, 5-Ethynyl-6-fluoro-4-(4-((1S,7R,8S)-8-fluoro-2-azabicyclo[5.1.0]octan-2-yl)-2-(((2R,7aS)-2-fluorotetrahydro-1H-pyrrolizin-7a(5H)-yl)methoxy-d2)-8-methylpyrido[4,3-d]pyrimidin-7-yl)naphthalen-2-amine]: the pIC50 under setting [1] was over 7.30.

Take `[2H]C([2H])(Oc1nc(N2CCCC[C@H]3[C@H](F)[C@H]32)c2cnc(-c3cc(O)cc4ccc(F)c(C#C)c34)c(C)c2n1)[C@@]12CCCN1CC(=C)C2` [Example 461, 5-Ethynyl-6-fluoro-4-(4-((1S,7R,8S)-8-fluoro-2-azabicyclo[5.1.0]octan-2-yl)-8-methyl-2-(((S)-2-methylenetetrahydro-1H-pyrrolizin-7a(5H)-yl)methoxy-d2)pyrido[4,3-d]pyrimidin-7-yl)naphthalen-2-ol]: under setting [1], the pIC50 is over 7.30. Compound `[2H]C([2H])(Oc1nc(N2CCCC[C@H]3[C@H](F)[C@H]32)c2cnc(-c3cc(O)cc4ccc(F)c(C#C)c34)c(C)c2n1)[C@]12CC(=C)CN1CCC21CC1` [Example 462, 5-Ethynyl-6-fluoro-4-(4-((1S,7R,8S)-8-fluoro-2-azabicyclo[5.1.0]octan-2-yl)-8-methyl-2-(((R)-6′-methylenetetrahydrospiro[cyclopropane-1,1′-pyrrolizin]-7a′(5′H)-yl)methoxy-d2)pyrido[4,3-d]pyrimidin-7-yl)naphthalen-2-ol] gave a pIC50 under setting [1] of over 7.30.

`[2H]C([2H])(Oc1nc(N2CCCC[C@H]3[C@H](F)[C@H]32)c2cnc(-c3cc(O)cc4ccc(F)c(C#C)c34)c(C)c2n1)[C@@]12CCCN1C[C@H](F)C2` [Example 463, 5-Ethynyl-6-fluoro-4-(4-((1S,7R,8S)-8-fluoro-2-azabicyclo[5.1.0]octan-2-yl)-2-(((2R,7aS)-2-fluorotetrahydro-1H-pyrrolizin-7a(5H)-yl)methoxy-d2)-8-methylpyrido[4,3-d]pyrimidin-7-yl)naphthalen-2-ol] gave a pIC50 under setting [1] of over 7.30.

Compound `[2H]C([2H])(Oc1nc(N2CCCC[C@H]3[C@H](Cl)[C@H]32)c2cnc(-c3cc(N)cc4ccc(F)c(C#C)c34)c(C)c2n1)[C@@]12CCCN1C[C@H](F)C2` [Example 464, 4-(4-((1S,7R,8S)-8-chloro-2-azabicyclo[5.1.0]octan-2-yl)-2-(((2R,7aS)-2-fluorotetrahydro-1H-pyrrolizin-7a(5H)-yl)methoxy-d2)-8-methylpyrido[4,3-d]pyrimidin-7-yl)-5-ethynyl-6-fluoronaphthalen-2-amine] gave a negative-log IC50 (pIC50) under setting [1] of over 7.30. The same measure, in the same setting: the same measure for `[2H]C([2H])(Oc1nc(N2CCCC[C@@H]3[C@@H](Cl)[C@@H]32)c2cnc(-c3cc(N)cc4ccc(F)c(C#C)c34)c(C)c2n1)[C@@]12CCCN1C[C@H](F)C2` [Example 465, 4-(4-((1R,7S,8R)-8-chloro-2-azabicyclo[5.1.0]octan-2-yl)-2-(((2R,7aS)-2-fluorotetrahydro-1H-pyrrolizin-7a(5H)-yl)methoxy-d2)-8-methylpyrido[4,3-d]pyrimidin-7-yl)-5-ethynyl-6-fluoronaphthalen-2-amine]: 5.00 to 6.30. For `[2H]C([2H])(Oc1nc(N2CCOC[C@H]3[C@H](F)[C@H]32)c2cc(F)c(-c3cc(O)cc4ccc(F)c(C#C)c34)c(C)c2n1)[C@@]12CCCN1C[C@H](F)C2` [Example 469, 5-ethynyl-6-fluoro-4-((S)-6-fluoro-4-((1S,7S,8S)-8-fluoro-5-oxa-2-azabicyclo[5.1.0]octan-2-yl)-2-(((2R,7aS)-2-fluorotetrahydro-1H-pyrrolizin-7a(5H)-yl)methoxy-d2)-8-methylquinazolin-7-yl)naphthalen-2-ol], where the note is “cellular pERK HTRF”, the pIC50 is over 7.30. Under setting [1], `[2H]C([2H])(Oc1nc(N2CCOC[C@H]3[C@H](F)[C@H]32)c2cc(Cl)c(-c3ccc(F)c4sc(N)c(C#N)c34)c(C)c2n1)[C@@]12CCCN1C[C@H](F)C2` [Example 470, 2-amino-4-(6-chloro-4-((1S,7S,8S)-8-fluoro-5-oxa-2-azabicyclo[5.1.0]octan-2-yl)-2-(((2R,7aS)-2-fluorotetrahydro-1H-pyrrolizin-7a(5H)-yl)methoxy-d2)-8-methylquinazolin-7-yl)-7-fluorobenzo[b]thiophene-3-carbonitrile] showed a pIC50 of over 7.30. On the same count and under the same terms, the same measure for `[2H]C([2H])(Oc1nc(N2CCOC[C@H]3[C@H](F)[C@H]32)c2cnc(-c3cc(O)cc4ccc(F)c(C#C)c34)c(C)c2n1)[C@@]12CCCN1[C@H](C)[C@H](F)C2` [Example 471, 5-ethynyl-6-fluoro-4-(2-(((2R,3R,7aS)-2-fluoro-3-methyltetrahydro-1H-pyrrolizin-7a(5H)-yl)methoxy-d2)-4-((1S,7S,8S)-8-fluoro-5-oxa-2-azabicyclo[5.1.0]octan-2-yl)-8-methylpyrido[4,3-d]pyrimidin-7-yl)naphthalen-2-ol]: over 7.30; for `[2H]C([2H])(Oc1nc(N2CCOC[C@H]3[C@H](F)[C@H]32)c2cnc(-c3cc(O)cc4ccc(F)c(C#C)c34)c(F)c2n1)[C@@]12CCCN1[C@H](C)[C@H](F)C2` [Example 472, 5-ethynyl-6-fluoro-4-(8-fluoro-2-(((2R,3R,7aS)-2-fluoro-3-methyltetrahydro-1H-pyrrolizin-7a(5H)-yl)methoxy-d2)-4-((1S,7S,8S)-8-fluoro-5-oxa-2-azabicyclo[5.1.0]octan-2-yl)pyrido[4,3-d]pyrimidin-7-yl)naphthalen-2-ol]: over 7.30. Regarding `[2H]C([2H])(Oc1nc(N2CCCC[C@H]3[C@H](F)[C@H]32)c2cnc(-c3cc(O)cc4ccc(F)c(C#C)c34)c(C)c2n1)[C@@]12CCCN1[C@H](C)[C@H](F)C2` [Example 473, 5-ethynyl-6-fluoro-4-(2-(((2R,3R,7aS)-2-fluoro-3-methyltetrahydro-1H-pyrrolizin-7a(5H)-yl)methoxy-d2)-4-((1S,7R,8S)-8-fluoro-2-azabicyclo[5.1.0]octan-2-yl)-8-methylpyrido[4,3-d]pyrimidin-7-yl)naphthalen-2-ol], the pIC50 under setting [1] was over 7.30. With `[2H]C([2H])(Oc1nc(N2CCCC[C@H]3[C@H](F)[C@H]32)c2cnc(-c3cc(O)cc4ccc(F)c(C#C)c34)c(F)c2n1)[C@@]12CCCN1[C@H](C)[C@H](F)C2` [Example 474, 5-ethynyl-6-fluoro-4-(8-fluoro-2-(((2R,3R,7aS)-2-fluoro-3-methyltetrahydro-1H-pyrrolizin-7a(5H)-yl)methoxy-d2)-4-((1S,7R,8S)-8-fluoro-2-azabicyclo[5.1.0]octan-2-yl)pyrido[4,3-d]pyrimidin-7-yl)naphthalen-2-ol], the negative logarithm of the IC50 (pIC50) under setting [1] was over 7.30. Turning to `[2H]C([2H])(Oc1nc(N2CCOC[C@H]3[C@H](Cl)[C@H]32)c2cnc(-c3cc(O)cc4ccc(F)c(C#C)c34)c(F)c2n1)[C@@]12CCCN1[C@H](C)[C@H](F)C2` [Example 475, 4-(4-((1S,7S,8S)-8-chloro-5-oxa-2-azabicyclo[5.1.0]octan-2-yl)-8-fluoro-2-(((2R,3R,7aS)-2-fluoro-3-methyltetrahydro-1H-pyrrolizin-7a(5H)-yl)methoxy-d2)pyrido[4,3-d]pyrimidin-7-yl)-5-ethynyl-6-fluoronaphthalen-2-ol], the pIC50 under setting [1] was over 7.30. On the same count and under the same terms, the same measure for `C#Cc1c(F)ccc2cc(N)cc(-c3ncc4c(N5CCOC[C@H]6[C@H](F)[C@H]65)nc(OCC56CCN5CC(F)(F)C6)nc4c3F)c12` (stereo partly drawn) [Example 476, 4-(2-((3,3-difluoro-1-azabicyclo[3.2.0]heptan-5-yl)methoxy)-8-fluoro-4-((1S,7S,8S)-8-fluoro-5-oxa-2-azabicyclo[5.1.0]octan-2-yl)pyrido[4,3-d]pyrimidin-7-yl)-5-ethynyl-6-fluoronaphthalen-2-amine]: over 7.30; for `C#Cc1c(F)ccc2cc(N)cc(-c3ncc4c(N5CCOC[C@H]6[C@H](F)[C@H]65)nc(OCC5CCC6COCCN65)nc4c3F)c12` (stereo partly drawn) [Example 477, 5-ethynyl-6-fluoro-4-(8-fluoro-4-((1S,7S,8S)-8-fluoro-5-oxa-2-azabicyclo[5.1.0]octan-2-yl)-2-((hexahydro-1H-pyrrolo[2,1-c][1,4]oxazin-6-yl)methoxy)pyrido[4,3-d]pyrimidin-7-yl)naphthalen-2-amine]: over 7.30.

The pIC50 is −log10 of the IC50, conventionally taken in molar units. A low value points to a large IC50.

The values above are taken from patent US20250282799A1, “SUBSTITUTED PYRIDO[4,3-d]PYRIMIDINES AS KRAS MODULATORS” (Alterome Therapeutics, Inc., priority 2023, published 2025).
